Laboratory results reported in ChEMBL document CHEMBL1129024, “Design, synthesis, and antitumor activity of bicyclic and isomeric analogues of illudin M” (Bioorg Med Chem Lett, 1996).

Key:
Assay type in all cases: functional, cell-based
MDA-MB-231 = test: In vitro antitumor activity against MB231 (breast) human tumor cell lines.
A-375 = test: In vitro antitumor activity against A375 (melanoma) human tumor cell lines.
A549 = test: In vitro antitumor activity against A549 (lung) human tumor cell lines.
SW480 = test: In vitro antitumor activity against SW480 (colon) human tumor cell lines.

IC50 (MDA-MB-231) | IC50 (A-375) | IC50 (A549) | IC50 (SW480) | Structure (SMILES)
110 nM | 4 nM | 150 nM | 120 nM | C/C=C1\C=C(C)C2(CC2)C(C)(O)C1=O (stereo not given)
2000 nM | 2000 nM | 3000 nM | 4000 nM | CC1=C/C(=C\C#CCCO)C(=O)C(C)(O)C12CC2 (stereo not given)
> 10000 nM | > 10000 nM | > 10000 nM | > 10000 nM | CC1=C/C(=C\c2cccs2)C(=O)C(C)(O)C12CC2 (stereo not given)
28 nM | 18 nM | 2 nM | 180 nM | C=C/C=C1\C=C(C)C2(CC2)C(C)(O)C1=O (stereo not given)
2000 nM | 32 nM | 250 nM | 60 nM | C=C1C2=C(CC(C)(C)C2=O)C(=O)C(C)(O)C12CC2 (stereo not given)
300 nM | 130 nM | 110 nM | 30 nM | CC1=C/C(=C\C(C)C)C(=O)C(C)(O)C12CC2 (stereo not given)
4000 nM | > 10000 nM | 1500 nM | 2500 nM | CC1=C/C(=C\c2ccccc2)C(=O)C(C)(O)C12CC2 (stereo not given)
150 nM | 70 nM | 120 nM | 60 nM | COc1cccc2c1C(=O)c1c(O)c3c(c(O)c1C2=O)C[C@@](O)(C(=O)CO)C[C@@H]3O[C@H]1C[C@H](N)[C@H](O)[C@H](C)O1 [DOXORUBICIN]

Structure (SMILES) | IC50 (MDA-MB-231) | IC50 (A-375) | IC50 (A549) | IC50 (SW480)
CC1=C/C(=C\Cl)C(=O)C(C)(O)C12CC2 (stereo not given) | 300 nM | 1000 nM | 200 nM | 30 nM
CC1=C2C(=O)C(C)(C)C=C2C(=O)[C@](C)(O)C12CC2 [DEHYDROILLUDIN M] | 450 nM | 550 nM | 200 nM | 300 nM
